Structures can show the parent of a compound that is named as a salt. Where two headings read alike, the source gives them in different places.
Assays:
cardiac microtissues [1] = experiment: Targeted qRT-PCR of ATAD3C, CDH13, IL6, PTX3, SLC7A5, UCHL1 in cardiac microtissues; type: cell-based, human; details: Sorafenib 3.74 µM, Sunitinib 3.53 µM, Dasatinib 10.8 µM; for activity at 3.74 µM: Homo sapiens, read-out: % of control
Procedure: The experiment was performed with three technical replicates across 1-2 independent replicates.

cardiac microtissues [2] = experiment: Transcriptomic profiling (mRNA-seq) and DESeq2 differential gene expression analysis in cardiac microtissues; details: absolute log2(Fold-Change) > 1, FDR p ≤ 0.05
cardiac microtissues [3] = experiment: Ingenuity Pathway Analysis over-representation of differentially expressed genes (activation Z-score); type: cell-based, human; details: 48hr high; Group 2
cardiac microtissues [4] = experiment: ATP depletion (CellTiter Glo Luminescent Cell Viability Assay) in cardiac microtissues; type: cell-based, human; details: the concentration is the IC30 of ATP depletion, or cell death caused
Procedure: Cellular ATP concentrations were also assessed using the CellTiter Glo® Luminescent Cell Viability Assay as per the manufacturer’s instructions (Promega).

[5] = ref FDA label, cited from earlier work
hiPS-CMs = test system: hiPS-CMs; set-up: method as in Harmer et al., 2012; details: 10 µM; ref Harmer et al., 2012; cited from earlier work

CNC(=O)c1cc(Oc2ccc(NC(=O)Nc3ccc(Cl)c(C(F)(F)F)c3)cc2)ccn1 [Sorafenib Tosylate]
activity at 3.74 µM (cardiac microtissues [1]; gene ATAD3C, Run 1): 85.7% | activity at 3.74 µM (cardiac microtissues [1]; gene CDH13, Run 1): 74% | activity at 3.74 µM (cardiac microtissues [1]; gene CDH13, Run 2): 113% | activity at 3.74 µM (cardiac microtissues [1]; gene IL6, Run 1): 35.3% | activity at 3.74 µM (cardiac microtissues [1]; gene IL6, Run 2): 6.7% | activity at 3.74 µM (cardiac microtissues [1]; gene PTX3, Run 1): 73.7% | activity at 3.74 µM (cardiac microtissues [1]; gene PTX3, Run 2): 74% | activity at 3.74 µM (cardiac microtissues [1]; gene SLC7A5, Run 1): 57% | activity at 3.74 µM (cardiac microtissues [1]; gene SLC7A5, Run 2): 50.2% | activity at 3.74 µM (cardiac microtissues [1]; gene UCHL1, Run 1): 66.2% | activity at 3.74 µM (cardiac microtissues [1]; gene UCHL1, Run 2): 70.9% | 2^-ΔΔCt of Individual reps, Treated 1 (cardiac microtissues [1]; gene ATAD3C, Run 1): 0.8342 | 2^-ΔΔCt of Individual reps, Treated 2 (cardiac microtissues [1]; gene ATAD3C, Run 1): 0.8632 | 2^-ΔΔCt of Individual reps, Treated 3 (cardiac microtissues [1]; gene ATAD3C, Run 1): 0.8757 | Average 2^-ΔΔCt, Treated (cardiac microtissues [1]; gene ATAD3C, Run 1): 0.8577 | 2^-ΔΔCt of Individual reps, Treated 1 (cardiac microtissues [1]; gene CDH13, Run 1): 0.6992 | 2^-ΔΔCt of Individual reps, Treated 2 (cardiac microtissues [1]; gene CDH13, Run 1): 0.7927 | 2^-ΔΔCt of Individual reps, Treated 3 (cardiac microtissues [1]; gene CDH13, Run 1): 0.7507 | Average 2^-ΔΔCt, Treated (cardiac microtissues [1]; gene CDH13, Run 1): 0.7476 | 2^-ΔΔCt of Individual reps, Treated 1 (cardiac microtissues [1]; gene CDH13, Run 2): 1.515 | 2^-ΔΔCt of Individual reps, Treated 2 (cardiac microtissues [1]; gene CDH13, Run 2): 1.105 | 2^-ΔΔCt of Individual reps, Treated 3 (cardiac microtissues [1]; gene CDH13, Run 2): 0.7867 | Average 2^-ΔΔCt, Treated (cardiac microtissues [1]; gene CDH13, Run 2): 1.136 | 2^-ΔΔCt of Individual reps, Treated 1 (cardiac microtissues [1]; gene IL6, Run 1): 0.3353 | 2^-ΔΔCt of Individual reps, Treated 2 (cardiac microtissues [1]; gene IL6, Run 1): 0.4238 | 2^-ΔΔCt of Individual reps, Treated 3 (cardiac microtissues [1]; gene IL6, Run 1): 0.3063 | Average 2^-ΔΔCt, Treated (cardiac microtissues [1]; gene IL6, Run 1): 0.3551 | 2^-ΔΔCt of Individual reps, Treated 1 (cardiac microtissues [1]; gene IL6, Run 2): 0.169 | 2^-ΔΔCt of Individual reps, Treated 2 (cardiac microtissues [1]; gene IL6, Run 2): 0.0204 | 2^-ΔΔCt of Individual reps, Treated 3 (cardiac microtissues [1]; gene IL6, Run 2): 0.0311 | Average 2^-ΔΔCt, Treated (cardiac microtissues [1]; gene IL6, Run 2): 0.07349 | 2^-ΔΔCt of Individual reps, Treated 1 (cardiac microtissues [1]; gene PTX3, Run 1): 0.6982 | 2^-ΔΔCt of Individual reps, Treated 2 (cardiac microtissues [1]; gene PTX3, Run 1): 0.8787 | 2^-ΔΔCt of Individual reps, Treated 3 (cardiac microtissues [1]; gene PTX3, Run 1): 0.6669 | Average 2^-ΔΔCt, Treated (cardiac microtissues [1]; gene PTX3, Run 1): 0.7479 | 2^-ΔΔCt of Individual reps, Treated 1 (cardiac microtissues [1]; gene PTX3, Run 2): 0.9568 | 2^-ΔΔCt of Individual reps, Treated 2 (cardiac microtissues [1]; gene PTX3, Run 2): 0.4098 | 2^-ΔΔCt of Individual reps, Treated 3 (cardiac microtissues [1]; gene PTX3, Run 2): 0.8963 | Average 2^-ΔΔCt, Treated (cardiac microtissues [1]; gene PTX3, Run 2): 0.7543 | 2^-ΔΔCt of Individual reps, Treated 1 (cardiac microtissues [1]; gene SLC7A5, Run 1): 0.5608 | 2^-ΔΔCt of Individual reps, Treated 2 (cardiac microtissues [1]; gene SLC7A5, Run 1): 0.6339 | 2^-ΔΔCt of Individual reps, Treated 3 (cardiac microtissues [1]; gene SLC7A5, Run 1): 0.5348 | Average 2^-ΔΔCt, Treated (cardiac microtissues [1]; gene SLC7A5, Run 1): 0.5765 | 2^-ΔΔCt of Individual reps, Treated 1 (cardiac microtissues [1]; gene SLC7A5, Run 2): 0.6489 | 2^-ΔΔCt of Individual reps, Treated 2 (cardiac microtissues [1]; gene SLC7A5, Run 2): 0.4574 | 2^-ΔΔCt of Individual reps, Treated 3 (cardiac microtissues [1]; gene SLC7A5, Run 2): 0.4262 | Average 2^-ΔΔCt, Treated (cardiac microtissues [1]; gene SLC7A5, Run 2): 0.5108 | 2^-ΔΔCt of Individual reps, Treated 1 (cardiac microtissues [1]; gene UCHL1, Run 1): 0.6452 | 2^-ΔΔCt of Individual reps, Treated 2 (cardiac microtissues [1]; gene UCHL1, Run 1): 0.6787 | 2^-ΔΔCt of Individual reps, Treated 3 (cardiac microtissues [1]; gene UCHL1, Run 1): 0.6738 | Average 2^-ΔΔCt, Treated (cardiac microtissues [1]; gene UCHL1, Run 1): 0.6659 | 2^-ΔΔCt of Individual reps, Treated 1 (cardiac microtissues [1]; gene UCHL1, Run 2): 0.8432 | 2^-ΔΔCt of Individual reps, Treated 2 (cardiac microtissues [1]; gene UCHL1, Run 2): 0.6978 | 2^-ΔΔCt of Individual reps, Treated 3 (cardiac microtissues [1]; gene UCHL1, Run 2): 0.5876 | Average 2^-ΔΔCt, Treated (cardiac microtissues [1]; gene UCHL1, Run 2): 0.7095 | number of significant differentially expressed genes, 6hr high (cardiac microtissues [2]; 6 hr, high concentration): 13 | number of significant differentially expressed genes, 6hr low (cardiac microtissues [2]; 6 hr, low concentration): 7 | number of significant differentially expressed genes, 48hr high (cardiac microtissues [2]; 48 hr, high concentration): 268 | number of significant differentially expressed genes, 48hr low (cardiac microtissues [2]; 48 hr, low concentration): 150 | number of significant differentially expressed genes, 72hr high (cardiac microtissues [2]; 72 hr, high concentration): 204 | number of significant differentially expressed genes, 72hr low (cardiac microtissues [2]; 72 hr, low concentration): 143 | activation Z-score: Acute Phase Response Signaling (cardiac microtissues [3]): -1.414 | activation Z-score: Adrenomedullin signaling pathway (cardiac microtissues [3]): 0.447 | activation Z-score: Aryl Hydrocarbon Receptor Signaling (cardiac microtissues [3]): -1.342 | activation Z-score: Breast Cancer Regulation by Stathmin1 (cardiac microtissues [3]): -2.111 | activation Z-score: Cardiac Hypertrophy Signaling (Enhanced) (cardiac microtissues [3]): -1.387 | activation Z-score: Cell Cycle: G2/M DNA Damage Checkpoint Regulation (cardiac microtissues [3]): -2.236 | activation Z-score: Colorectal Cancer Metastasis Signaling (cardiac microtissues [3]): -1.633 | activation Z-score: Cyclins and Cell Cycle Regulation (cardiac microtissues [3]): 1.342 | activation Z-score: Endothelin-1 Signaling (cardiac microtissues [3]): -2 | activation Z-score: G-Protein Coupled Receptor Signaling (cardiac microtissues [3]): -1.897 | activation Z-score: HIF1Î± Signaling (cardiac microtissues [3]): -0.447 | activation Z-score: HMGB1 Signaling (cardiac microtissues [3]): -1.897 | activation Z-score: Hepatic Fibrosis Signaling Pathway (cardiac microtissues [3]): -2.111 | activation Z-score: IL-6 Signaling (cardiac microtissues [3]): -1.667 | activation Z-score: IL-8 Signaling (cardiac microtissues [3]): -2 | activation Z-score: ILK Signaling (cardiac microtissues [3]): -1 | activation Z-score: Immunogenic Cell Death Signaling Pathway (cardiac microtissues [3]): -1 | activation Z-score: Kinetochore Metaphase Signaling Pathway (cardiac microtissues [3]): 1.886 | activation Z-score: LXR/RXR Activation (cardiac microtissues [3]): 2.333 | activation Z-score: Leukocyte Extravasation Signaling (cardiac microtissues [3]): -2 | activation Z-score: MIF Regulation of Innate Immunity (cardiac microtissues [3]): -2 | activation Z-score: Macrophage Alternative Activation Signaling Pathway (cardiac microtissues [3]): 2.236 | activation Z-score: Osteoarthritis Pathway (cardiac microtissues [3]): -2.714 | activation Z-score: Oxytocin Signaling Pathway (cardiac microtissues [3]): -2.236 | activation Z-score: PPAR Signaling (cardiac microtissues [3]): 2.236 | activation Z-score: Pulmonary Fibrosis Idiopathic Signaling Pathway (cardiac microtissues [3]): -1.897 | activation Z-score: Pulmonary Healing Signaling Pathway (cardiac microtissues [3]): -0.447 | activation Z-score: Pyridoxal 5'-phosphate Salvage Pathway (cardiac microtissues [3]): 2.236 | activation Z-score: Regulation Of The Epithelial Mesenchymal Transition By Growth Factors Pathway (cardiac microtissues [3]): -1.89 | activation Z-score: Ribonucleotide Reductase Signaling Pathway (cardiac microtissues [3]): -0.816 | activation Z-score: Role of IL-17F in Allergic Inflammatory Airway Diseases (cardiac microtissues [3]): -2 | activation Z-score: Role of JAK family kinases in IL-6-type Cytokine Signaling (cardiac microtissues [3]): -1.414 | activation Z-score: Salvage Pathways of Pyrimidine Ribonucleotides (cardiac microtissues [3]): 2.236 | activation Z-score: Senescence Pathway (cardiac microtissues [3]): -1.89 | activation Z-score: Signaling by Rho Family GTPases (cardiac microtissues [3]): -0.447 | activation Z-score: TREM1 Signaling (cardiac microtissues [3]): -2 | activation Z-score: White Adipose Tissue Browning Pathway (cardiac microtissues [3]): 0 | activation Z-score: Wound Healing Signaling Pathway (cardiac microtissues [3]): -2.714 | Transcriptomic high concentration (µM) = IC30 of ATP depletion (cardiac microtissues [4]): 3.74 µM | Structural cardiotoxin? ([5]; FDA label references heart failure or a decrease in left ventricular ejection fraction): Y | Functional cardiotoxin? ([5]; compound annotation): Y

COc1ccc(CCN(C)CCCC(C#N)(c2ccc(OC)c(OC)c2)C(C)C)cc1OC (stereo not shown) [verapamil]
inhibition of calcium transient signal in cardiomyocytes (hiPS-CMs): inhibit almost all of the calcium transient signal
